Measured values taken from patent publication US6197982A, “Vitamin D analogues” (priority 1996, dated 2001).
“Also recorded” adds a separate entry of the source. Like-named read-outs stand apart in the source and are kept apart here.

Tests used:
breast cancer cells [1] = conditions: cited from earlier work
breast cancer cells [2] = conditions: in vitro; cited from earlier work
[3] = calcemic activity in rats in vivo; set-up: species or system rat; key to Calc. rel. (calcemic activity relative to 1,25(OH)2 D3): calcemic activity relative to 1,25(OH)2D3 (=1); conditions: for Calc. rel. (calcemic activity relative to 1,25(OH)2 D3): rats in vivo, low values preferred; for calcemic activity, in words: compared with 1,25(OH)2 D3
Protocol: The calcemic activity of the compounds was determined in rats in vivo, as previously described. In table 1, column "Calc., rel.", the calcemic activities of selected compounds (relative to 1,25(OH)2 D3) are listed; as mentioned, low values for the compounds of the present invention are ordinarily preferred.
(§1) .sunburst. The values are relative to 1,25 (OH)2 D3; a value

[4] = test system: HaCaT, human skin keratinocyte cell line; test: HaCaT antiproliferative assay, 3H-thymidine uptake; type: cell-based; conditions: for inhibition at 0.1 µM: Homo sapiens, HaCaT, read-out: HaCaT, max. % (maximal inhibition of the cell proliferation); for inhibition at 0.1 µM / maximal inhibition in HaCaT, in words: at 10^-7 M; for HaCaT rel. (ratio between the IC50 value of 1,25(OH)2 D3 and the IC50 value of the compound): relative to 1,25(OH)2 D3, 3H-thymidine incorporation, >1 = more active; for maximal inhibition in HaCaT, in words / potency in the HaCaT-assay (psoriasis model), in words: compared with 1,25(OH)2 D3
Source text: as §1
(§2) H-thymidine incorporation compared to controls.
.cndot. "HaCaT, max %" indicates the maximal inhibition of the cell
proliferation (maximal efficacy) which is obtainable at the higher
concentration of 10^-7 M of a compound.

mouse spleen lymphocytes = test: mixed lymphocyte reaction (MLR), 3H-thymidine incorporation; type: cell-based, mouse (BALB/c and CB6F1); conditions: for MLR rel. (ratio between the IC50 value of 1,25(OH)2 D3 and the IC50 value of the compound): relative to 1,25(OH)2 D3, 72 hours, >1 = more active; for immunosuppressive activity (MLR), in words: also in comparison with prior art reference compounds
Protocol: The mixed cultures of lymphocytes are incubated with the test compounds for 72 hours. Cellular DNA-synthesis is assessed by the incorporation of ^3 H-thymidine in the D
as §1, §2

psoriasis = conditions: cited from earlier work
[5] = in vivo; cited from earlier work
calcium metabolism = conditions: cited from earlier work; for activity on calcium metabolism: in vivo
transcriptional activity = conditions: compared to 1,25(OH)2 D3; cited from earlier work
skin allograft = conditions: mice; cited from earlier work
graft rejection = conditions: cited from earlier work
[6] = test system: type I diabetes, non-obese diabetic (NOD) mouse; conditions: cited from earlier work
[7] = test system: autoimmune disease recurrence in NOD mice; conditions: cited from earlier work
angiogenesis = conditions: cited from earlier work
immune functions = conditions: in vivo; cited from earlier work
B-lymphocytes = conditions: in vitro; cited from earlier work
[8] = test system: regulatory/suppressor T-lymphocytes; conditions: cited from earlier work
Cytotoxic T-cells = conditions: cited from earlier work
monocytes/macrophages = conditions: cited from earlier work
activated T-lymphocytes = conditions: cited from earlier work
cells = conditions: cited from earlier work

## C=C1/C(=C\C=C2/CCC[C@]3(C)[C@@H]([C@H](C)/C=C/C=C/C(O)(CC)CC)CC[C@@H]23)C[C@@H](O)C[C@@H]1O [EB 1089]
Breast cancer cells [1]
  growth of breast cancer cells: inhibits the growth of breast cancer cells in vitro and in vivo
Breast cancer cells [1]; in vivo
  selectivity between the anti-cancer and the calcemic effects: definite selectivity between the anti-cancer and the calcemic effects in vivo
Breast cancer cells [2]
  growth of breast cancer cells: inhibits the growth of breast cancer cells in vitro

## C=C1/C(=C\C=C2/CCC[C@]3(C)[C@@H]([C@@H](C)C(C#CC(O)(CC)CC)OCC)CC[C@@H]23)C[C@@H](O)C[C@@H]1O (stereo partly drawn) [GS1720]
[3]
  Calc. rel. (calcemic activity relative to 1,25(OH)2 D3): 1.2
[4]
  inhibition at 0.1 µM: 70%
  HaCaT rel. (ratio between the IC50 value of 1,25(OH)2 D3 and the IC50 value of the compound): 3.9
Mouse spleen lymphocytes
  MLR rel. (ratio between the IC50 value of 1,25(OH)2 D3 and the IC50 value of the compound): 36

## C=C1/C(=C\C=C2/CCC[C@]3(C)[C@@H]([C@@H](C)C(C#CC(O)(CC)CC)OC)CC[C@@H]23)C[C@@H](O)C[C@@H]1O (stereo partly drawn) [GS1725]
[3]
  Calc. rel. (calcemic activity relative to 1,25(OH)2 D3): 12
[4]
  inhibition at 0.1 µM: 96%
  HaCaT rel. (ratio between the IC50 value of 1,25(OH)2 D3 and the IC50 value of the compound): 4.4
Mouse spleen lymphocytes
  MLR rel. (ratio between the IC50 value of 1,25(OH)2 D3 and the IC50 value of the compound): 150

## C=C1/C(=C\C=C2/CCC[C@]3(C)[C@@H]([C@@H](C)C(CCC(C)(C)O)OCC)CC[C@@H]23)C[C@@H](O)C[C@@H]1O (single isomer, unassigned) [Compound 102]
[3]
  calcemic activity, in words: only about half as large as that of 1,25(OH)2 D3
  Calc. rel. (calcemic activity relative to 1,25(OH)2 D3): 0.50
[4]
  inhibition at 0.1 µM: 85%
  maximal inhibition in HaCaT, in words: the same, or higher, maximal inhibition at 10^-7 M as 1,25(OH)2 D3
  potency in the HaCaT-assay (psoriasis model), in words: considerably more potent than 1,25(OH)2 D3
  HaCaT rel. (ratio between the IC50 value of 1,25(OH)2 D3 and the IC50 value of the compound): 137
Mouse spleen lymphocytes
  immunosuppressive activity (MLR), in words: potent effects
  MLR rel. (ratio between the IC50 value of 1,25(OH)2 D3 and the IC50 value of the compound): 161

## C=C1/C(=C\C=C2/CCC[C@]3(C)[C@@H]([C@@H](C)C(CCC(C)(C)O)OC)CC[C@@H]23)C[C@@H](O)C[C@@H]1O (single isomer, unassigned) [Compound 101]
[3]
  calcemic activity, in words: only about half as large as that of 1,25(OH)2 D3
  Calc. rel. (calcemic activity relative to 1,25(OH)2 D3): 0.45
[4]
  inhibition at 0.1 µM: 92%
  maximal inhibition in HaCaT, in words: the same, or higher, maximal inhibition at 10^-7 M as 1,25(OH)2 D3
  potency in the HaCaT-assay (psoriasis model), in words: considerably more potent than 1,25(OH)2 D3
  HaCaT rel. (ratio between the IC50 value of 1,25(OH)2 D3 and the IC50 value of the compound): 28
Mouse spleen lymphocytes
  immunosuppressive activity (MLR), in words: potent effects
  MLR rel. (ratio between the IC50 value of 1,25(OH)2 D3 and the IC50 value of the compound): 175

## C=C1/C(=C\C=C2/CCC[C@]3(C)[C@@H]([C@@H](C)C(O)C#CC(O)(CC)CC)CC[C@@H]23)C[C@@H](O)C[C@@H]1O (stereo partly drawn) [GS1535]
[3]
  Calc. rel. (calcemic activity relative to 1,25(OH)2 D3): 8.2
[4]
  inhibition at 0.1 µM: 82%
  HaCaT rel. (ratio between the IC50 value of 1,25(OH)2 D3 and the IC50 value of the compound): 313
Mouse spleen lymphocytes
  MLR rel. (ratio between the IC50 value of 1,25(OH)2 D3 and the IC50 value of the compound): 13

## C=C1/C(=C\C=C2/CCC[C@]3(C)[C@@H]([C@H](C)/C=C/[C@@H](O)C4CC4)CC[C@@H]23)C[C@@H](O)C[C@@H]1O [MC903]
psoriasis; psoriasis patients
  hypercalcemia in patients: without hypercalcemia
psoriasis; without hypercalcemia, psoriasis
  improvement, % of the patients: 70-80%
[3]
  Calc. rel. (calcemic activity relative to 1,25(OH)2 D3): 0.005
[5]
  metabolism: rapid metabolism
[4]
  inhibition at 0.1 µM: 78%
  HaCaT rel. (ratio between the IC50 value of 1,25(OH)2 D3 and the IC50 value of the compound): 1.8
Calcium metabolism
  activity on calcium metabolism: only moderate activity on calcium metabolism in vivo
Calcium metabolism; listed as Calcipotriol
  activity on calcium metabolism: low in vivo activity on calcium metabolism
Mouse spleen lymphocytes
  MLR rel. (ratio between the IC50 value of 1,25(OH)2 D3 and the IC50 value of the compound): 0.6

## C=C1/C(=C\C=C2/CCC[C@]3(C)[C@@H]([C@@H](C)CCCC(C)(C)O)CC[C@@H]23)C[C@@H](O)C[C@@H]1O [MC1288, 20-epi-1,25(OH)2 D3]
[3]
  Calc. rel. (calcemic activity relative to 1,25(OH)2 D3): 2.5
Transcriptional activity
  transcriptional activity: enhanced transcriptional activity
Skin allograft
  hypercalcemia / serum calcium: less hypercalcemic than KH 1060
  skin allograft survival / immunosuppression: very effective
Graft rejection; rat heart and small bowel transplantation
  immunosuppression / prevention of graft rejection: effective as an immunosuppressant in a rat model of heart and small bowel transplantations, preventing graft rejection; also recorded: valuable immunosuppressive activity in animal transplantation experiments
Graft rejection; rat transplantation model
  serum calcium level: moderately increased
[4]
  inhibition at 0.1 µM: 76%
  HaCaT rel. (ratio between the IC50 value of 1,25(OH)2 D3 and the IC50 value of the compound): 43
Mouse spleen lymphocytes
  MLR rel. (ratio between the IC50 value of 1,25(OH)2 D3 and the IC50 value of the compound): 150

## C=C1/C(=C\C=C2/CCC[C@]3(C)[C@@H]([C@@H](C)C(O)CCC(C)(C)O)CC[C@@H]23)C[C@@H](O)C[C@@H]1O (stereo partly drawn) [CB1297]
[4]
  inhibition at 0.1 µM: 75%
  HaCaT rel. (ratio between the IC50 value of 1,25(OH)2 D3 and the IC50 value of the compound): 45
Mouse spleen lymphocytes
  MLR rel. (ratio between the IC50 value of 1,25(OH)2 D3 and the IC50 value of the compound): 12

## C=C1/C(=C\C=C2/CCC[C@]3(C)[C@@H]([C@@H](C)OCCCC(O)(CC)CC)CC[C@@H]23)C[C@@H](O)C[C@@H]1O [KH 1060, 20-epi-22-oxa-25,26,27-trihomo-1,25-(OH)2 D3]
[6]
  effect on calcium and bone: only slight
  immunoregulation in type I diabetes: effective immunoregulator
Transcriptional activity
  transcriptional activity: enhanced transcriptional activity
Skin allograft
  hypercalcemia / serum calcium: induced hypercalcemia in the highest, and most effective, dose
  skin allograft survival / immunosuppression: prolonged skin allograft survival in mice; also recorded: most potent immunosuppressor
[7]
  toxicity: toxic in the most effective high doses
[7]; islet transplantation
  delaying autoimmune disease recurrence: very effective in delaying autoimmune disease recurrence

## C=C1/C(=C\C=C2/CCC[C@]3(C)[C@@H]([C@H](C)CCCC(C)(C)O)CC[C@@H]23)C[C@@H](O)C[C@@H]1O [1,25(OH)2 D3, 1α,25-dihydroxy-vitamin D3]
angiogenesis
  angiogenesis: inhibition of angiogenesis
[3]
  Calc. rel. (calcemic activity relative to 1,25(OH)2 D3): 1
Immune functions
  immune functions in vitamin D deficiency states: restores normal immune functions in vitamin D deficiency states in vivo
B-lymphocytes
  formation of antibodies (IgM and IgG) from B-lymphocytes: indirect inhibition of the formation of antibodies (IgM and IgG)
[6]
  immunoregulation in type I diabetes: effective immunomodulator
[8]
  regulatory/suppressor T-lymphocytes: stimulated
Cytotoxic T-cells
  cytotoxic T-cells: inhibited
monocytes/macrophages; antigen-stimulated monocytes/macrophages
  production/release of cytokines such as IL-1 and TNF: downregulation
monocytes/macrophages
  antibacterial activity of monocytes/macrophages: enhances their antibacterial activity
  differentiation of monocytes towards macrophages: stimulates the differentiation of monocytes towards macrophages
[4]
  inhibition at 0.1 µM: 85%
  HaCaT rel. (ratio between the IC50 value of 1,25(OH)2 D3 and the IC50 value of the compound): 1
Calcium metabolism; high doses necessary for therapeutic effect on e.g. psoriasis, cancer, immunological disorders
  hypercalcemia: serious side effects due to hypercalcemia
Mouse spleen lymphocytes
  MLR rel. (ratio between the IC50 value of 1,25(OH)2 D3 and the IC50 value of the compound): 1
Activated T-lymphocytes
  cytokines IL-2 and INF-γ: down-regulation of cytokines IL-2 and INF-γ
  proliferation of activated T-lymphocytes: inhibited
cells
  differentiation of cells: stimulate the differentiation of cells
  excessive cell proliferation: inhibit excessive cell proliferation

## C=C1/C(=C\C=C2/CCC[C@]3(C)[C@@H]([C@H](C)CCCCC(O)(CC)CC)CC[C@@H]23)C[C@@H](O)C[C@@H]1O [CB 966]
Skin allograft
  skin allograft survival / immunosuppression: prolonged skin allograft survival in mice
